# Assay results published in ChEMBL document CHEMBL5614460, “Discovery of novel substituted pyridine carboxamide derivatives as potent allosteric SHP2 inhibitors” (Eur J Med Chem, 2024).
# Target: T1, Tyrosine-protein phosphatase non-receptor type 11 (Homo sapiens, UniProt Q06124)
# T1 sequence (Q06124 whole entry): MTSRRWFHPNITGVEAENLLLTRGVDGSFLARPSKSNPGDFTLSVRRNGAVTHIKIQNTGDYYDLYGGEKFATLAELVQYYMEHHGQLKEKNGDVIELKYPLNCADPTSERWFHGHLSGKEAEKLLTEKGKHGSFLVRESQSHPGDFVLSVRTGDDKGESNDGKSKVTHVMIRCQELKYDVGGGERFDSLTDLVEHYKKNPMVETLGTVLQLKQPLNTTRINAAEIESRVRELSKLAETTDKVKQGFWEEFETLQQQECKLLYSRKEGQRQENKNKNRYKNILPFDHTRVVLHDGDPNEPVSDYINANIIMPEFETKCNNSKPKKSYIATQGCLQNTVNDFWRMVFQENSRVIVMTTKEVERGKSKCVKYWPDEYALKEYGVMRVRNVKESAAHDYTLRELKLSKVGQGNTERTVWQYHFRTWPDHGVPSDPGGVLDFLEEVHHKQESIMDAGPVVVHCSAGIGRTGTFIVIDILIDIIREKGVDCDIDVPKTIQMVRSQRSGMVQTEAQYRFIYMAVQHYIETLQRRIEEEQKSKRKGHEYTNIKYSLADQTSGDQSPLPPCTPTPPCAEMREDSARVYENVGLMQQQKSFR
# Test: (§1) Allosteric inhibition of N-terminal His-tagged human recombinant SHP2 extracted from Escherichia coli using DiFMUP as substrate preincubated with compound for 60 mins followed by substrate addition and measured after 30 mins by fluorescence based microplate reader analysis
# Conditions: not given
row,Structure (SMILES),IC50
1,N[C@@H]1c2ccccc2CC12CCN(c1cnc(Sc3cccc(NC(=O)c4ncccc4O)c3Cl)cn1)CC2,0.6 nM
2,C[C@@H]1OCC2(CCN(c3cnc(Sc4cccc(NC(=O)c5ncccc5O)c4Cl)cn3)CC2)[C@@H]1N,0.59 nM
3,CC1(N)CCN(c2cnc(Sc3cccc(NC(=O)c4cccc5ccccc45)c3Cl)cn2)CC1,332 nM
4,N[C@@H]1c2ccccc2CC12CCN(c1cnc(Sc3cccc(NC(=O)c4cccnc4O)c3Cl)cn1)CC2,1.87 nM
5,N[C@@H]1c2ccccc2CC12CCN(c1cnc(Sc3cccc(NC(=O)c4ncccc4Cl)c3Cl)cn1)CC2,1.08 nM
6,C[C@@H]1OCC2(CCN(c3cnc(Sc4cccc(NC(=O)c5cccnc5O)c4Cl)cn3)CC2)[C@@H]1N,0.13 nM
7,CC1(N)CCN(c2cnc(Sc3ccc(NC(=O)c4ccccc4)cc3Cl)cn2)CC1,296 nM
8,Nc1nc(N2CCN(C(=O)C3(N)CCCC3)CC2)cnc1Sc1ccnc(N)c1Cl,530 nM
9,C[C@@H]1OCC2(CCN(c3cnc(Sc4cccc(NC(=O)c5ncccc5Cl)c4Cl)cn3)CC2)[C@@H]1N,1.03 nM
10,C[C@@H]1OCC2(CCN(c3cnc(Sc4cccc(NC(=O)c5cnccc5O)c4Cl)cn3)CC2)[C@@H]1N,0.17 nM
11,CC1(N)CCN(c2cnc(Sc3cccc(NC(=O)C4CCCCC4)c3Cl)cn2)CC1,174 nM
12,CC1(N)CCN(c2cnc(Sc3cccc(N)c3Cl)cn2)CC1,36.2 nM

# Next, values leading:
row,IC50,Structure (SMILES)
1,77 nM,CC1(N)CCN(c2cnc(Sc3cccc(NC(=O)c4cnccn4)c3Cl)cn2)CC1
2,39.6 nM,CC1(N)CCN(c2cnc(Sc3cccc(NC(=O)/C=C/c4ccccc4)c3Cl)cn2)CC1
3,218 nM,CC1(N)CCN(c2cnc(Sc3cccc(NC(=O)c4ccc(Cl)cn4)c3Cl)cn2)CC1
4,147 nM,CC1(N)CCN(c2cnc(Sc3cccc(NC(=O)c4ccncc4Cl)c3Cl)cn2)CC1
5,32.3 nM,CC1(N)CCN(c2cnc(Sc3cccc(NC(=O)c4ncccc4F)c3Cl)cn2)CC1
6,1.7 nM,CC1(N)CCN(c2cnc(Sc3cccc(NC(=O)c4ncccc4Cl)c3Cl)cn2)CC1
7,119 nM,CC1(N)CCN(c2cnc(Sc3cccc(NC(=O)c4cccs4)c3Cl)cn2)CC1
8,6.4 nM,CC1(N)CCN(c2cnc(Sc3cccc(NC(=O)c4cnccc4O)c3Cl)cn2)CC1
9,113 nM,CC1(N)CCN(c2cnc(Sc3cccc(NC(=O)c4ccco4)c3Cl)cn2)CC1
10,52.8 nM,CC1(N)CCN(c2cnc(Sc3cccc(NC(=O)c4ncccc4Br)c3Cl)cn2)CC1
11,30.1 nM,CC1(N)CCN(c2cnc(Sc3cccc(NC(=O)c4ncccn4)c3Cl)cn2)CC1
12,219 nM,CC1(N)CCN(c2cnc(Sc3cccc(NC(=O)c4cc(Cl)ccn4)c3Cl)cn2)CC1
13,67.8 nM,CC1(N)CCN(c2cnc(Sc3cccc(NC(=O)c4ccccc4)c3Cl)cn2)CC1
14,11.3 nM,CC1(N)CCN(c2cnc(Sc3cccc(NC(=O)c4cccnc4O)c3Cl)cn2)CC1
15,175 nM,CC1(N)CCN(c2cnc(Sc3cccc(NC(=O)c4cccc(Cl)n4)c3Cl)cn2)CC1
16,51.9 nM,CC1(N)CCN(c2cnc(Sc3cccc(NC(=O)c4nccs4)c3Cl)cn2)CC1
17,6.6 nM,CC1(N)CCN(c2cnc(Sc3cccc(NC(=O)c4ncccc4O)c3Cl)cn2)CC1
18,88.6 nM,CC1(N)CCN(c2cnc(Sc3cccc(NC(=O)c4ncccc4C(F)(F)F)c3Cl)cn2)CC1
19,49.8 nM,CC1(N)CCN(c2cnc(Sc3cccc(NC(=O)Cc4ccccc4)c3Cl)cn2)CC1
20,29.4 nM,CC1(N)CCN(c2cnc(Sc3cccc(NC(=O)c4ccccn4)c3Cl)cn2)CC1
21,128 nM,CC1(N)CCN(c2cnc(Sc3cccc(NC(=O)c4cnccc4Cl)c3Cl)cn2)CC1
22,365 nM,CC1(N)CCN(c2cnc(Sc3cccc(NC(=O)c4cccnc4Cl)c3Cl)cn2)CC1
23,89.1 nM,Cc1cccnc1C(=O)Nc1cccc(Sc2cnc(N3CCC(C)(N)CC3)cn2)c1Cl

# Target: T2, Tyrosine-protein phosphatase non-receptor type 11 (Homo sapiens) (UniProt Q06124)
# T2 sequence (whole entry): T1 sequence (Q06124 whole entry)
# Test: as §1, with “as substrate at 10 uM preincubated with” for “as substrate preincubated with”, “reader analysis relative to control” for “reader analysis”
# Conditions: time 90.0 min
row,inhibition,Structure (SMILES)
1,48.8%,Nc1nc(N2CCN(C(=O)[C@@H]3CCCN3)CC2)cnc1Sc1ccnc(N)c1Cl
2,44.2%,Nc1nc(N2CCN(C(=O)C3(N)CCC3)CC2)cnc1Sc1ccnc(N)c1Cl
3,13.2%,C[C@H](N)C(=O)N1CCN(c2cnc(Sc3ccnc(N)c3Cl)c(N)n2)CC1
4,50.2%,Nc1nc(N2CCN(C(=O)[C@H]3CCCN3)CC2)cnc1Sc1ccnc(N)c1Cl
5,58.8%,NCC(=O)N1CCN(c2cnc(Sc3ccnc(N)c3Cl)c(N)n2)CC1
6,43.8%,C[C@@H](N)C(=O)N1CCN(c2cnc(Sc3ccnc(N)c3Cl)c(N)n2)CC1
7,95.2%,Nc1nc(N2CCN(C(=O)C3(N)CCCC3)CC2)cnc1Sc1ccnc(N)c1Cl
8,14.3%,Nc1nc(N2CCN(C(=O)C3(N)CCCCC3)CC2)cnc1Sc1ccnc(N)c1Cl

# Tested on: MV4-11
# Test: Antiproliferative activity against human MV4-11 cells assessed as inhibition of cell proliferation incubated for 72 hrs by CCK-8 assay
# Format: functional, cell-based
# Conditions: Homo sapiens, MV4-11, 72 h
row,Structure (SMILES),IC50
1,C[C@@H]1OCC2(CCN(c3cnc(Sc4cccc(NC(=O)c5cccnc5O)c4Cl)cn3)CC2)[C@@H]1N,45.5 nM
2,C[C@@H]1OCC2(CCN(c3cnc(Sc4cccc(NC(=O)c5cnccc5O)c4Cl)cn3)CC2)[C@@H]1N,16.6 nM
